According to US7414058B2, “Adenosine A2a receptor antagonists for the treatment of extra-pyramidal syndrome and other movement disorders” (Schering Corporation, priority 2002, dated 2008):

Test system: haloperidol-induced EPS in Cebus apella monkeys
Assay: Haloperidol-induced EPS in sensitized Cebus apella monkeys
Type: in vivo
Conditions: for monkeys in which onset of EPS was prevented: group of seven monkeys
Method: A more complete understanding of the invention may be obtained by reading the following description in conjunction with the appended figures relating to haloperidol-induced EPS in Cebus apella monkeys.
Compound A was administered orally (p.o.) at doses of 0.3-30 mg/kg, in conjunction with haloperidol. The studies were conducted using a within-subjects design such that each monkey received all 6 treatments (vehicle and 5 doses of Compound A) in a crossover, balanced design.

[1] = 1 mg/kg p.o., haloperidol 0.3 mg/kg p.o.
[2] = 10 and 30 mg/kg p.o., haloperidol 0.3 mg/kg p.o.

SMILES: Nc1nc2c(cnn2CCN2CCN(c3ccc(F)cc3F)CC2)c2nc(-c3ccco3)nn12 [Compound A]
- monkeys in which onset of EPS was prevented [1]: one
- delay of the onset of EPS [1]: 1 h
- monkeys in which onset of EPS was prevented (3 mg/kg p.o., haloperidol 0.3 mg/kg p.o.): two
- delay of the onset of EPS (3 mg/kg p.o., in the remaining monkeys, haloperidol 0.3 mg/kg p.o.): ~2 h
- monkeys in which onset of EPS was prevented [2]: three
- delay of the onset of EPS (average) [2]: 2.3 to 2.9 h
- maximum EPS score (Compound A 0.3-30 mg/kg p.o. with haloperidol 0.3 mg/kg p.o., FIG. 1A, seven monkeys, crossover): dose-dependent reduction
- delay in the onset of EPS (dose dependence) (Compound A 0.3-30 mg/kg p.o. with haloperidol 0.3 mg/kg p.o., FIG. 1B, vs vehicle): dose-dependent delay
